Series [1] is described as follows: Octanol/water partition coefficient, log D of the compound. The format is physicochemical.
A short description of series [2]: Fraction unbound in baboon plasma. The conditions noted are these: papio anubis. The format is ADME, cell-free.
Series [3] is described as follows: Metabolic stability in baboon blood at 2.5+/-0.8 mCi, iv after 10 mins. The class given is ADME, organism-based. The conditions noted are these: papio anubis, read-out: Stability.
Series [4] in a line: Biodistribution in baboon liver at 2.5+/-0.8 mCi, iv followed by second dose administered > 2 hrs after initial dose measured per cc after 90 mins. The class given is ADME, organism-based. The conditions noted are these: papio anubis, in vivo, 1.5 h.
The nature of series [5]: Biodistribution in baboon heart at 2.5+/-0.8 mCi, iv followed by second dose administered > 2 hrs after initial dose measured per cc after 90 mins. The conditions noted are these: papio anubis, in vivo, 1.5 h. The format is ADME, organism-based.
Series [6] is described as follows: Biodistribution in baboon spleen at 2.5+/-0.8 mCi, iv followed by second dose administered > 2 hrs after initial dose measured per cc after 90 mins. The conditions noted are these: papio anubis, in vivo, 1.5 h. The format is ADME, organism-based.
Series [7] in a line: Biodistribution in baboon lung at 2.5+/-0.8 mCi, iv followed by second dose administered > 2 hrs after initial dose measured per cc after 90 mins. The class given is ADME, organism-based. The conditions noted are these: papio anubis, in vivo, 1.5 h.
Series [8] in a line: Selectivity ratio of vasopressin V1b receptor over vasopressin V1a receptor.
Series [9] is described as follows: Selectivity ratio of vasopressin V1b receptor over vasopressin V2 receptor.
Series [10] in a line: Selectivity ratio of vasopressin V1b receptor over oxytocin receptor.

Consider `COc1ccccc1[C@@]1(N2C[C@H](O)C[C@H]2C(=O)N(C)C)C(=O)N(S(=O)(=O)c2ccc(O[11CH3])cc2OC)c2ccc(Cl)cc21`, for which, in series [1], the logD (commonly the decadic logarithm of the distribution of all forms, ionised or not, between an organic phase and buffer at a given pH) is 3.22. For the same compound, the unbound share (fraction unbound) – broadly, the share of the substance not bound to proteins or other matrix – in series [2] was 0.0254. For the same compound, the remaining at 10 min in series [3] was 50%.
In the case of `COc1ccc(S(=O)(=O)N2C(=O)[C@@](c3ccccc3OC)(N3C[C@H](O)C[C@H]3C(=O)N(C)C)c3cc(Cl)ccc32)c(OC)c1` [NELIVAPTAN], the Drug uptake was found to be 0.1 %ID in series [4], 0.01 %ID in series [5], 0.01 %ID in [6] and 0.01 %ID in [7]. Moreover, the Ratio in [8], in [9] and in series [10] was 100 in each case.
